Data on 18 molecules can be found in ChEMBL document CHEMBL1133769, “Novel inhibitors of DNA gyrase: 3D structure based biased needle screening, hit validation by biophysical methods, and 3D guided optimization. A promising alternative to random screening” (J Med Chem, 2000).

Sequence of DNA gyrase (Staphylococcus aureus) (P0A0K8 2-644 limits assumed): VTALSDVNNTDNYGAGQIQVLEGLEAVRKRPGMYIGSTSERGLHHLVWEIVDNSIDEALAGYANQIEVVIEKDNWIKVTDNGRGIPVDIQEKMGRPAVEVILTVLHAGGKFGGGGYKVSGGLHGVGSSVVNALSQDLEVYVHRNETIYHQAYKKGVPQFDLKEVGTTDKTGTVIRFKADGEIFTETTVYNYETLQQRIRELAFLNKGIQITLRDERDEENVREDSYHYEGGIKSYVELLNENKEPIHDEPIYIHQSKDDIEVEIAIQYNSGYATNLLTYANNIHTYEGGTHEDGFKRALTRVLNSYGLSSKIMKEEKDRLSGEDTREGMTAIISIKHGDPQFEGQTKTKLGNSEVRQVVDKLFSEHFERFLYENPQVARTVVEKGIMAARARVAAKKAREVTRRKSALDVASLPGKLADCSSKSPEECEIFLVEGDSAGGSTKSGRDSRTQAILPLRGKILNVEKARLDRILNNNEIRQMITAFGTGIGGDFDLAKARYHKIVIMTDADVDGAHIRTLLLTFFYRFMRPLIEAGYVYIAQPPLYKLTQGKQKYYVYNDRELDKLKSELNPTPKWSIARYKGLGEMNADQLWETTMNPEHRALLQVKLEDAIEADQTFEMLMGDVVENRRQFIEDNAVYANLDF
Sequence of DNA gyrase (Staphylococcus aureus) (P20831 whole entry partner): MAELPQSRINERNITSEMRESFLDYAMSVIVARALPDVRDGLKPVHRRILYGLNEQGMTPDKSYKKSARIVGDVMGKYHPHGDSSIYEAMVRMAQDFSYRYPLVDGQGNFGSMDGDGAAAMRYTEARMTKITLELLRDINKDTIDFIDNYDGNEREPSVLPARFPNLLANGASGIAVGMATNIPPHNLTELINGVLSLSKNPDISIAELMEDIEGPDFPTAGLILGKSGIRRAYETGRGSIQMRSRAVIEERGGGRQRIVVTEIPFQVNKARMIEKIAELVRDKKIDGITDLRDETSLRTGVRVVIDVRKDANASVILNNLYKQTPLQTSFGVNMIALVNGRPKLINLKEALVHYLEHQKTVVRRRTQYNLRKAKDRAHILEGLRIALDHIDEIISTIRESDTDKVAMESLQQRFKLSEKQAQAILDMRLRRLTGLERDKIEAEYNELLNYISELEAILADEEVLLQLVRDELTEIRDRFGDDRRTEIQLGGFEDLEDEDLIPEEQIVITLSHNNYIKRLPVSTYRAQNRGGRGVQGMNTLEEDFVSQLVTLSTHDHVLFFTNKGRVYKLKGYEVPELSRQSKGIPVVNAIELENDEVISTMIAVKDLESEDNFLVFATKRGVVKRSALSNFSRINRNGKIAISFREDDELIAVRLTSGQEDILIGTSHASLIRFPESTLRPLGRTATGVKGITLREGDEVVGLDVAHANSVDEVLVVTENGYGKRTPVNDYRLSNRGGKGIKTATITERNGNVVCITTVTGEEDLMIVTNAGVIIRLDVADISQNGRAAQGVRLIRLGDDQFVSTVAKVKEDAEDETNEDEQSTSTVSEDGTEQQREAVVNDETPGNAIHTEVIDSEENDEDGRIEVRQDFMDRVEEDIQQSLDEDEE

Tested on in one data set: not listed separately
The data set is described as follows: Dissociation constant determined by heteronuclear 1H/15N correlation NMR spectroscopy. The class given is physicochemical.
`Nc1ncncn1` returned a Kd of 60 mM.
In turn, `Nc1ncccn1` came in with a Kd of 60 mM. This lies in the millimolar range.

A further data set has as its system Nucleic Acid. The data set is described as follows: Maximal noneffective concentration (MNEC) for inhibition of DNA gyrase. The class given is nucleic-acid assay.
Molecule `c1ccc2[nH]ncc2c1` yielded an MNEC of over 250 µg/mL.

A further data set addresses DNA gyrase (Staphylococcus aureus) (UniProt P0A0K8+P20831).
Description: Maximal noneffective concentration for inhibition of DNA gyrase using supercoiling assay.
`Cc1c(O)cc(O)c2c1C(=O)OC[C@H](NC(=O)[C@@H]1[C@H](O)CCN1C(=O)[C@@H](N)CO)C(=O)N[C@H](C(=O)N[C@@H](C)C(=O)O)CSC2` displayed an MNEC of 0.05 µg/mL.
`Nc1ncncn1` registered an MNEC of over 250 µg/mL.
In turn, `Cc1cc(=O)oc2cc(SCc3n[nH]c4cccc(OCc5ccc(C(C)(C)C)cc5)c34)ccc12` displayed an MNEC of 0.03 µg/mL.
The same measure, in the same setting: the result for `O=[N+]([O-])c1ccc2[nH]nc(-c3ccccc3)c2c1` reads 63 µg/mL.
On the same count and under the same terms, in the case of `Cc1cc(=O)oc2cc(SCc3n[nH]c4ccccc34)ccc12` it was 8 µg/mL; in that of `Cc1[nH]c2ncnc(Cl)c2c1C`, 31 µg/mL; in that of `N#Cc1cnc(S)nc1N`, 16 µg/mL.
Regarding `OC(CCCCl)c1cc2ccccc2[nH]1` (stereo not given), the MNEC amounted to 16 µg/mL.
As to `Cc1cc(=O)oc2cc(SCc3n[nH]c4cccc(OCc5ccccc5)c34)ccc12`, the MNEC turned out to be 0.25 µg/mL.
In turn, `c1ccc(-c2[nH]nc3ccccc23)cc1` had an MNEC of 8 µg/mL.
The same measure, in the same setting: in the case of `NC(=O)Oc1cc([N+](=O)[O-])ccc1CSCc1ccc(Cl)c(Cl)c1` it was 31 µg/mL.
Take `Nc1ncccn1`: the MNEC was over 250 µg/mL.
For `Nc1ccncn1`, the MNEC is over 250 µg/mL.
In turn, `CSc1nc(N)nc(SCCN2CCOCC2)n1` registered an MNEC of 31 µg/mL.
The molecule `Oc1ccc(Cl)cc1CNc1ccc(Cl)cc1` returned an MNEC of 5 µg/mL.
`Cc1csc(NS(=O)(=O)c2ccc(F)cc2F)c1C(N)=O`: the MNEC is 10 µg/mL.
`Nc1ccccn1` came in with an MNEC of over 250 µg/mL.
